The IC50 is the point on the concentration scale where inhibition reaches its midpoint. A higher IC50 goes with weaker potency in that assay.

The target in data set [1] is T1, human GP IIb/IIIa receptor (Homo sapiens, UniProt P05106+P08514).
T1 construct: human GPIIb/IIIa purified from human platelets was immobilized on a 96-well solid plate; purchased Enzyme Research Laboratories Inc. (South Bend, Ind.); host or cells: human platelets (natural source, detergent-solubilised)
The data set can be described thus: GPIIb/IIIa affinity assay (displacement of tritiated reference compound from immobilized receptor). Particulars: purified human GPIIb/IIIa, 60 nM 3H-labeled reference compound, 1 hour at room temperature. It is filed as binding. How it is done: Affinity assay: In the first step human GPIIb/IIIa purified from human platelets was immobilized on a 96-well solid plate. After 48 hours the plates were washed and the unspecific binding sites were blocked with Roti®-Block. 2. In the next step, the plates were simultaneously incubated with a tritium labeled known GPIIb/IIIa binder (^3H) mixed with increasing concentrations of the novel compounds (inhibitor). The higher the affinity of the inhibitor, the lower the bound fraction of the tritiated known GPIIb/IIIa binder (^3H) was. The fraction of tritiated compound (^3H), which is not displaced by inhibitor, was measured in a microplate scintillation counter.
Purified human glycoprotein IIb/IIIa (20 mM Tris-HCl, 0.1 M NaCl, 0.1% Triton X-100, 1 mM CaCl2, 0.05% NaN3, 50% Glycerol, pH 7.4) was purchased from Enzyme Research Laboratories Inc. (South Bend, Ind.). The GPIIb/IIIa receptor was diluted in phosphate-buffered saline (Dulbecco's Phosphate Buffered Saline (D-PBS (+)) with calcium and magnesium, GIBCO®, Invitrogen) with 0.01% bovine serum albumin (albumin from bovine serum—lyophilized powder, 96%, Sigma).
The GPIIb/IIIa receptor was immobilized 48 hours at least (100 μL per well, 48 to maximum 96 hours) on a 96-well solid plate (Immuno Plate MaxiSorp™, Nunc, Roskilde, Denmark) at 277 K to 280 K and at a concentration of 0.1 μg per well to 1 μg per well. As negative control one row of the plate (n=8) was incubated just with 2% bovine serum albumin (200 μL per well, albumin from bovine serum—lyophilized powder, ≧96%, Sigma, diluted in D-PBS (+)).
After washing three times with the wash buffer (230 μL per well, Dulbecco's Phosphate Buffered Saline (D-PBS (−)) contains no calcium or magnesium, GIBCO®, Invitrogen) residual exposed plastic and unspecific binding sites were blocked by incubating the plate with a special blocking solution (200 μL per well, Roti®-Block, Car Roth GmbH Co KG, Karlsruhe) containing 2% bovine serum albumin (Albumin from bovine serum—lyophilized powder, ≧96%, Sigma) 1 hour at room temperature.
After washing three times with the wash buffer 50 μL of tritiated reference compound (60 nM, ^3H-labeled compound) and 50 μL of novel compound (inhibitor) were simultaneously added to each well and incubated for 1 hour at room temperature. Several concentrations of each novel inhibitor (0.1, 1, 2, 5, 10, 20 50, 100, 200, 500, 1000, 2000, 5000, 10000 and 20000 nM) were investigated. At each concentration of inhibitor a fourfold determination was performed.
The maximum value of tritiated reference compound was determined without addition of inhibitor (n=8). To exclude unspecific binding of ^3H— reference compound wells without glycoprotein receptors were used as negative controls (n=12, identically treated just without GPIIb/IIIa receptors).
After one hour the plate was washed three times with phosphate-buffered saline (200 μL per well, Dulbecco's Phosphate Buffered Saline (D-PBS (+)), GIBCO®, Invitrogen). Following 140 μL of liquid scintillation cocktail (MicroScint™ 40 aqueous, Perkin Elmer) was added to each well. After 15 min at room temperature the plates were measured at the microplate scintillation counter (TopCount NXT v2.13, Perkin Elmer, Packard Instrument Company).
In the first step human glycoprotein IIb/IIIa, which is purified from human platelets, was immobilized on a 96-well solid plate. After 48 hours at least the plates were washed and the unspecific binding sites were blocked with Roti®-Block. In the next step, the plates were simultaneously incubated with a tritium labeled reference compound and the novel small molecule compound (inhibitor). The higher the affinity of the inhibitor, the smaller is the bound fraction of reference compound. The fraction of tritiated reference compound, which is not displaced by inhibitor, was measured at a microplate scintillation counter. The higher the affinity of the inhibitor, the smaller is the bound fraction of tritium-labeled reference compound. […]

Data set [2] is described as follows: Relaxivity measurements at 1.41 T in water and plasma. It is filed as physicochemical. Particulars: relaxivity normalized to Gd, 37° C. The procedure: Relaxivity measurements at 1.41 T were performed using a MiniSpec mq60 spectrometer (Bruker Analytik, Karlsruhe) operating at a resonance frequency of 60 MHz and a temperature of 37° C. The T1 relaxation times were determined using the standard inversion recovery method. The T2 measurements were done by using the Carr-Purcell-Meiboom-Gill (CPMG) pulse sequence. All measurements were done at concentrations between 0.05 mM and 1 mM of Gd in water and plasma.
The relaxivities ri (where i=1, 2) were calculated on the basis of the measured relaxation rates Ri in water and plasma:
where Ri(0) represent the relaxation rate of the respective solvent and CGd the concentration of the compound normalized to the Gadolium.

In data set [3] the test system is human activated platelets. Kind of data set: Binding of investigated compounds to human activated platelets (ICP-MS of Gd in pellet and supernatant). Particulars: incubation concentration 1 μM molecule; for Concentration within platelet pellet: ADP-activated platelet-rich plasma, 20 minutes, pellet washed. Type of data set: cell-based. The procedure:
For each experiment fresh blood was taken from a volunteer using 10 mL citrate-tubes (Sarstedt S-Monovette 02.1067.001, 10 mL, Citrate 3.13%). The 10 mL citrate-tubes were carefully inverted 10 times to mix blood and anticoagulant. The tubes were stored in an incubator at a temperature of 37° C. until centrifugation (Heraeus miniTherm CTT with integrated rotation- and turning device, turning speed: 19 rotations per minute, Heraeus Instruments GmbH, Hanau/Germany).
For plasma preparation tube centrifugation was carried out for 15 minutes at 1811 g at room temperature (Eppendorf, Centrifuge 5810R). Blood was centrifuged 15 minutes at 201 g at room temperature to produce platelet-rich plasma. The tubes were stored for 30 min at room temperature to get a better separation. The separated platelet-rich plasma was finally centrifuged for further 3 min at 453 g to remove the remaining erythrocytes. The platelet-rich plasma was activated using a final concentration of 5 μM Adenosindiphosphate (ADP, Sigma). The activated platelet-rich plasma was incubated 20 minutes with different concentrations of gadolinium-labeled compound and subsequently was centrifuged 3 minutes at 1360 g. 20 μL of incubation solution was taken to determine the concentration (n=3). […] The gadolinium concentration of supernatant and pellet was determined using an inductively coupled plasma mass spectrometry (ICP-MS Agilent 7500a).
The results for incubation concentration of 1 μM gadolinium-labeled compound are summarized in table 3 (in comparison to Gadovist® standard dose: 100 μmol Gd/kg body weight).

T1 sequence (P08514 32-887 limits assumed): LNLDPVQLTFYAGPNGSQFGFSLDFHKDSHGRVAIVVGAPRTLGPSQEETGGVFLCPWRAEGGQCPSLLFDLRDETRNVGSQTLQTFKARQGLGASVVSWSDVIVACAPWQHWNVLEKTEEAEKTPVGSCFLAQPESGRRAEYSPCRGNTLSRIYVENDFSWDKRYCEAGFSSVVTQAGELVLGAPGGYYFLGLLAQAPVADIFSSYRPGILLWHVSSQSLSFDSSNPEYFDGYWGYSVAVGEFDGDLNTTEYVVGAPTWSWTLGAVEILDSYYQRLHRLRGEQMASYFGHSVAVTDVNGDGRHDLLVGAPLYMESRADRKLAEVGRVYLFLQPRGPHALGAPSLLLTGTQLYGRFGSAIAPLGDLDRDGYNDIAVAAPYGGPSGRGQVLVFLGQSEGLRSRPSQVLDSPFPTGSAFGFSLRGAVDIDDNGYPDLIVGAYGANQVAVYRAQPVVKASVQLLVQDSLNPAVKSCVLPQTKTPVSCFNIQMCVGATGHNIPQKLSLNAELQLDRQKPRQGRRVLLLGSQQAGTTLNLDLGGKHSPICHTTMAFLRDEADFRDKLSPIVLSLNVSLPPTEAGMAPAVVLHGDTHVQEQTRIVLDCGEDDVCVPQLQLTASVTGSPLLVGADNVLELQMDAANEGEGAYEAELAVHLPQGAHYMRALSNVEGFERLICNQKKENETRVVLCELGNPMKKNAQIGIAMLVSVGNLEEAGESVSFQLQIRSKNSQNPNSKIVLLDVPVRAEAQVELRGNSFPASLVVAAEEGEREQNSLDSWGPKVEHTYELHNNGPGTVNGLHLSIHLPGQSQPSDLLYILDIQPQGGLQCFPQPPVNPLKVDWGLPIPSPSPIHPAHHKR
T1 sequence (P08514 891-1039 partner limits assumed): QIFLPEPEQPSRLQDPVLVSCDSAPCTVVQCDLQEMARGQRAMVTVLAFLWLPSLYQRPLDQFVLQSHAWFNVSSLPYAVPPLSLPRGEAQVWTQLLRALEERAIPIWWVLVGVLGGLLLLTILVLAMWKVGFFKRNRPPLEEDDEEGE
T1 sequence (P05106 27-788): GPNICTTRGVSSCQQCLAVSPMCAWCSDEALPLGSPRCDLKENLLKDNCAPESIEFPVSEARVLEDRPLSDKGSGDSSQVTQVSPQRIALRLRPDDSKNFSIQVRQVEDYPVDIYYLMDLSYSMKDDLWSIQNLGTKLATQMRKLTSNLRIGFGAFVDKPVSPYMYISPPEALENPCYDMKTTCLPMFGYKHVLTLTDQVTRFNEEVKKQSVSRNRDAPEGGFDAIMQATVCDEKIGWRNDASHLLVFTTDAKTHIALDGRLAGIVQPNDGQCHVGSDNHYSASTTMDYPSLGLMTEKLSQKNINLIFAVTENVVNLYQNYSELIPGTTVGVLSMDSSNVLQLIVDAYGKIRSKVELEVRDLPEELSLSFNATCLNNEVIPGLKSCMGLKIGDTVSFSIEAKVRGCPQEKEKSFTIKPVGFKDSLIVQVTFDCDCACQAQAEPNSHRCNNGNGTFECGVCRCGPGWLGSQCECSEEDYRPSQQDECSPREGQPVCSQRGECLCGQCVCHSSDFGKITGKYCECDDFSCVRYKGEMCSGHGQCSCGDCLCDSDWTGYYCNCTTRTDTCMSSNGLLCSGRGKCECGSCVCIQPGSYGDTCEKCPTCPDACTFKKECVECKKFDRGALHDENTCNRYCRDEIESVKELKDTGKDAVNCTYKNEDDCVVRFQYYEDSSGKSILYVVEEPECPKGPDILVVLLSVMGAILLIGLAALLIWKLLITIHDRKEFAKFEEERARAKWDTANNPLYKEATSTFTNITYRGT

`CC(C(=O)NCC(=O)NCCCCc1cc(C#Cc2cncc([C@H](CC(=O)O)NC(=O)[C@@H]3CCCN(C(=O)CCC4CCNCC4)C3)c2)cc(CCCCNC(=O)CNC(=O)C(C)N2CCN(CC(=O)O)CCN(CC(=O)O)CCN(CC(=O)O)CC2)c1)N1CCN(CC(=O)O)CCN(CC(=O)O)CCN(CC(=O)O)CC1` (stereo partly drawn) [Example 6, Digadolinium 2,2′,2″,2′″,2″″,2′″″-({5-[(5-{(1S)-2-carboxy-1-[({(3R)-1-[3-(piperidin-4-yl)-propanoyl]piperidin-3-yl}carbonyl)amino]ethyl}pyridin-3-yl)ethynyl]-1,3-phenylene}-bis[butane-4,1-diylimino(2-oxoethane-2,1-diyl)imino(1-oxopropane-1,2-diyl)-1,4,7,10-tetraazacyclododecane-10,1,4,7-tetrayl])hexaacetate] registered an IC50 in data set [1] of 103 nM. Moreover, in data set [2], the r1 plasma stood at 10.3 L/mmol/s and the r1 water is 8.5 L/mmol/s. Besides, the “Concentration within platelet pellet” value in data set [3] was 6.8 ± 0.7 μM Gd.

Consider “Gadolinium 2,2′,2″-{10-[(2S)-1-({2-[(6-(3-[(5-{(1S)-2-carboxy-1-[({(3R)-1-[3-(piperidin-4- yl)propanoyl]piperidin-3-yl}carbonyl)amino]ethyl}pyridin-3-yl)ethynyl]phenyl}butyl)-amino]-2-oxoethyl)amino)-1-oxopropan-2-yl]-1,4,7,10-tetraazacyclododecane-1,4,7-triyl}triacetate [Example 5]”, for which the IC50 in data set [1] was 25 nM. For the same molecule, in data set [2], the r1 plasma stood at 9.9 L/mmol/s and the r1 water stood at 8.0 L/mmol/s. Moreover, the “Concentration within platelet pellet” value in data set [3] was 3.9 ± 0.4 μM Gd. Moreover, the pellet/supernatant in data set [3] (ratio of Gd concentration) is recorded as 123 ± 16 (n = 3).

(Values after US20160008490A1, “METAL CHELATE COMPOUNDS FOR BINDING TO THE PLATELET SPECIFIC GLYCOPROTEIN IIB/IIIA” (BAYER PHARMA AKTIENGESELLSCHAFT, priority 2013, published 2016).)
